Data as given in paper PMC8584244 (International Journal of Molecular Sciences, 2021).
Converted amounts (≈) assume the structure as drawn. Where two headings read alike, the source gives them in different places.

Assays:
[1] = tested on: H. pylori ATCC43504/NCTC11637; conditions: characterisation of reference strain ATCC43504/NCTC11637; no reference given; cited from earlier work
[2] = tested on: L. acidophilus ATCC SD5214; test: MIC and MBC by broth microdilution in MRSB; format: cell-based; conditions: Lactobacillus acidophilus
[3] = tested on: H. pylori ATCC43504 biofilm; test: antibiofilm activity (alamarBlue, CFU count, crystal violet, Live/Dead fluorescence microscopy); format: cell-based, Helicobacter pylori; conditions: for CFU count of biofilm / inhibition of H. pylori biofilm development: sub-MIC (carvacrol, thymol 64 µg/mL; amoxicillin 0.016 µg/mL); for biofilm observed by fluorescence microscopy (Live/Dead): sub-MIC treated samples, 72 h of incubation
Protocol: The CA inhibitors and amoxicillin were diluted in liquid culture medium consisting of BB supplemented with 2% (v/v) of FBS and 0.3% (w/v) of glucose. […] The controls consisted of: […] The antibiofilm assay was performed in 96-well flat bottom microtiter plates (Eppendorf, Hamburg, Germany). The biofilm formation in the controls and treated samples was evaluated in 35 mm Petri dishes (Eppendorf, Hamburg, Germany) stained with Live/Dead staining and visualized by fluorescence microscope. Three independent experiments were performed in triplicate. The plates were incubated at 37 °C for 72 h under microaerophilic conditions. After 72 h of incubation, the minimum biofilm inhibitory concentration (MBIC) was determined through the alamarBlue assay, the CFU count, and the crystal violet (CV) assay (Sigma Aldrich, St. Louis, MO, USA). In detail, at the end of the incubation, the non-adherent cells, corresponding to the planktonic supernatant, were removed, and the biofilms were washed with 100 µL of DPBS (Sigma Aldrich, St. Louis, MO, USA). AlamarBlue was diluted to 10% in the selected culture medium, and 100 µL was added to each sample in the wells. The samples were incubated for 4 h at 37 °C in microaerophilic conditions, and subsequently the percentage of alamarBlue reduction was determined. The CFU count was carried out starting from the wells stained with alamarBlue. […] Serial dilutions of the stock were performed in DPBS, plated on the selected agar, and incubated at 37 °C under microaerophilic conditions for 3–5 days. The antibiofilm activity was also determined through crystal violet staining following the procedure indicated. Then, the absorbance at 590 nm was measured, and the percentage of biofilm biomass, normalized to the control, was determined. […] The biofilms developed in 35 mm Petri dishes were stained with Live/Dead™ BacLight™ Bacterial Viability Kit (Life Technologies Carlsbad, CA, USA) as previously reported and immediately visualized at the fluorescence microscope.

SmuCA = SmuCA (Streptococcus mutans, UniProt Q8DVY1); test: stopped-flow CO2 hydrase assay, SmuCA; format: biochemical
H. pylori [4] = test: flow cytometry detection of cell viability (Live/Dead BacLight); conditions: sub-MIC treated samples, SYTO 9/propidium iodide
hCA VI = biological target: T1, hCA VI (Homo sapiens, UniProt P23280); test: stopped-flow CO2 hydrase assay, hCA VI; format: biochemical
T1 construct: made in house; host or cells: Escherichia coli (DE3)

MgCA = MgCA (Malassezia globosa, UniProt A8Q1N3); test: stopped-flow CO2 hydrase assay, MgCA; format: biochemical
[5] = tested on: L. rhamnosus GG ATCC 53103; test: MIC and MBC by broth microdilution in MRSB; format: cell-based, Lactobacillus rhamnosus; conditions: Lacticaseibacillus rhamnosus
AGS cells = tested on: AGS cells; design: method as in PMID 33228095, PMID 33805064; conditions: read-out: IC50 against AGS cells; cited from earlier work
HpCAβ [6] = biological target: T2, HpCAβ (Helicobacter pylori, UniProt O24855); test: biochemical; conditions: mean from three assays, errors ±5–10%
T2 sequence (O24855 1-221): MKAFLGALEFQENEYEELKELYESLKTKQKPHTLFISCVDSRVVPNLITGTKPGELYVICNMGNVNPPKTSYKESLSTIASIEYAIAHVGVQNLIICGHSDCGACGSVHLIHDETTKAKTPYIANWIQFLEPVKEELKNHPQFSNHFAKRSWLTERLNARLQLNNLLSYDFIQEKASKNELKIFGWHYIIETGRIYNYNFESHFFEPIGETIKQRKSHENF

L. reuteri DSM 17938 = test: MIC and MBC by broth microdilution in MRSB; format: cell-based, Lactobacillus reuteri; conditions: Limosilactobacillus reuteri
H. pylori ATCC43504 = test: MIC and MBC by broth micro-dilution with alamarBlue; format: cell-based; conditions: Helicobacter pylori
Protocol: H. pylori colonies were collected and inoculated in Brucella Broth (BB; Oxoid Ltd., Hampshire, UK) added with 2% (v/v) of foetal bovine serum (FBS; Sigma Aldrich, Milan, Italy). […] Oxoid Ltd., Hampshire, UK). […] The MIC was determined by the broth micro-dilution method, following the guidelines of the Clinical and Laboratory Standards Institute. […] Carvacrol and thymol were resuspended in dimethyl sulfoxide (DMSO, Sigma-Aldrich, Milan, Italy) and were diluted in the liquid culture medium described above. […] The controls consisted of: (I) H. pylori broth culture; (II) BB plus 2% (v/v) of FBS, with the addition of the two CA inhibitors or amoxicillin at different concentrations; (III) just BB plus 2% (v/v) of FBS. Three independent experiments were performed in triplicate. The plates were then incubated at 37 °C for 72 h under microaerophilic conditions. […] AlamarBlue was added at 10% in each well, following the manufacturer instructions, and the plates were placed in an incubator for 4 h at 37 °C in microaerophilic conditions. After the incubation, the percentage of alamarBlue reduction of treated and untreated samples was determined, as previously described. The minimum bactericidal concentration (MBC) was determined by using the same wells stained with alamarBlue. Briefly, 100 μL of the bacterial suspensions, taken from the blue-violet wells, were seeded on the selected agar plates and incubated at 37 °C for 3–5 days in microaerophilic conditions.

[7] = tested on: H. pylori ATCC43504 planktonic and biofilm phenotypes; format: cell-based, Helicobacter pylori
H. pylori [8] = conditions: Helicobacter pylori
hCA II = biological target: T3, hCA II (Homo sapiens, UniProt P00918); test: stopped-flow CO2 hydrase assay, hCA II; format: biochemical
T3 construct: made in house; host or cells: Escherichia coli (DE3)

hCA I = biological target: T4, hCA I (Homo sapiens, UniProt P00915); test: stopped-flow CO2 hydrase assay, hCA I; format: biochemical
T4 construct: made in house; host or cells: Escherichia coli (DE3)

PgiCAβ = PgiCAβ (Porphyromonas gingivalis, UniProt B2RL07); test: stopped-flow CO2 hydrase assay, PgiCAβ; format: biochemical
[9] = tested on: several reference and clinical H. pylori strains; design: method as in PMID 33228095, PMID 33805064; conditions: cited from earlier work
(UniProt Q9ZK30) = test: biochemical; design: species or system Helicobacter pylori; conditions: read-out: Ki HpCAα
HpCAβ [10] = biological target: T2, HpCAβ; conditions: both HpCAs; cited from earlier work
[11] = ATCCSD5214, L. acidophilus ATCC SD5214, 24 h, anaerobic, read-out: MIC
[12] = ATCCSD5214, L. acidophilus ATCC SD5214, read-out: MBC
[13] = ATCC53103, L. rhamnosus GG ATCC 53103, 24 h, anaerobic, read-out: MIC
[14] = ATCC53103, L. rhamnosus GG ATCC 53103, read-out: MBC
[15] = DSM17938, L. reuteri DSM 17938, 24 h, anaerobic, read-out: MIC
[16] = DSM17938, L. reuteri DSM 17938, read-out: MBC
[17] = H. pylori ATCC43504, 72 h, microaerophilic, read-out: MIC
[18] = H. pylori ATCC43504, read-out: MBC
[19] = Planktonic T (treated with sub-MIC concentration)
[20] = planktonic phenotype, sub-MIC concentration
[21] = biofilm phenotype, sub-MIC concentration

Sequence of PgiCAβ (B2RL07 19-242): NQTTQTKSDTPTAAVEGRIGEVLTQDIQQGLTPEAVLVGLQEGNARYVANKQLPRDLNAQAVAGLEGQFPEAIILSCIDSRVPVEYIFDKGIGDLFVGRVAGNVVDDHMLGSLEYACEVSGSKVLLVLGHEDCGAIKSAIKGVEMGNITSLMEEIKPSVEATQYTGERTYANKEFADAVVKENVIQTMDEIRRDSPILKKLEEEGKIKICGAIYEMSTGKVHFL
Sequence of SmuCA (Q8DVY1 1-166): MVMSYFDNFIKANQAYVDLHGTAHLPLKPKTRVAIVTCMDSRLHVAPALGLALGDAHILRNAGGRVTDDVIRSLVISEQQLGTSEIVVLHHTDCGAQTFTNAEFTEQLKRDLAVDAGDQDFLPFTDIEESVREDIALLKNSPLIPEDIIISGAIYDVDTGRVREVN
Sequence of MgCA (A8Q1N3 1-241): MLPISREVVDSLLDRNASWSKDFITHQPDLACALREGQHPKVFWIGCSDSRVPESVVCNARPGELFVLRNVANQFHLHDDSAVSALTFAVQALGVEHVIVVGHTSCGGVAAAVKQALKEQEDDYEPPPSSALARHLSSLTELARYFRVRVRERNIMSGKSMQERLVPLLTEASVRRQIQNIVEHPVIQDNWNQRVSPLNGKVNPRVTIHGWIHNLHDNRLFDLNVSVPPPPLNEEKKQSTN
T4 sequence (P00915 whole entry): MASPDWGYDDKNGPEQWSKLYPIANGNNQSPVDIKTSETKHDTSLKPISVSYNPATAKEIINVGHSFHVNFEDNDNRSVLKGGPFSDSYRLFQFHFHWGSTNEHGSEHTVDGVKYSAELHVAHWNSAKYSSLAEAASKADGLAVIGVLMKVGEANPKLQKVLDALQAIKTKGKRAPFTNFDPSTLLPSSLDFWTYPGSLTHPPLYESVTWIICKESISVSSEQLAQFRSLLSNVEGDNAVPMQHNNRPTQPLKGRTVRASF
T1 sequence (P23280 18-308): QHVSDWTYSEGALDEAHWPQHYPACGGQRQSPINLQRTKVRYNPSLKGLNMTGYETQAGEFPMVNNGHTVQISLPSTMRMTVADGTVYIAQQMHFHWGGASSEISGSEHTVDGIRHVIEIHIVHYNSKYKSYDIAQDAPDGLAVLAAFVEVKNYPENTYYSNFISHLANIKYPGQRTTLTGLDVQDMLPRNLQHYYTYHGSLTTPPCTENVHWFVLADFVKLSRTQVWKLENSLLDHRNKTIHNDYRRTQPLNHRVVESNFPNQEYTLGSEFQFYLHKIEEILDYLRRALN
Sequence of (UniProt Q9ZK30) (Q9ZK30 19-247 limits assumed): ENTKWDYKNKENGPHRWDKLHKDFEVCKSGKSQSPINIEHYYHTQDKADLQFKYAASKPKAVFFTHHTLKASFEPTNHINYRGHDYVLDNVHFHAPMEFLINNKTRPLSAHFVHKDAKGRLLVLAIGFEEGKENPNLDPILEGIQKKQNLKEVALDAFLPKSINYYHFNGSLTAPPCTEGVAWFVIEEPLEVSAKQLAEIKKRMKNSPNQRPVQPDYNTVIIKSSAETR

Row | Compound | MIC [2, 11] | MBC [2, 12] | CFU count of biofilm ([3]; 72 h) | inhibition of H. pylori biofilm development ([3]; 72 h) | biofilm observed by fluorescence microscopy (Live/Dead) [3] | Ki (SmuCA) | live cells (flow cytometry) (H. pylori [4]) | Ki (MgCA) | MIC [5, 13] | MBC [5, 14] | IC50 (AGS cells) | Ki (HpCAβ [6]) | MIC (L. reuteri DSM 17938; [15]) | MBC (L. reuteri DSM 17938; [16]) | MIC (H. pylori ATCC43504; [17]) | MBC (H. pylori ATCC43504; [18]) | % OMV eDNA+/Total OMVs [7, 19] | pOMV eDNA+ count versus untreated [7, 20] | total pOMVs count versus untreated [7, 20] | viability (flow cytometry) (H. pylori [8]) | also measured
1 | Cc1ncc([N+](=O)[O-])n1CCO [metronidazole] |  |  |  |  |  |  |  |  |  |  |  |  |  |  |  |  |  |  |  |  | MIC range [1]: 64 to 256 µg/mL
2 | Cc1ccc(C(C)C)c(O)c1 [thymol] | > 16000 µg/mL | > 16000 µg/mL | No CFUs were observed | ability to inhibit the development of the H. pylori mature biofilm | no biofilm formation | 84.9 µM | 3.00 × 10^5 live cells/mL | > 100 µM | > 16000 µg/mL | > 16000 µg/mL | 200 ± 6.5 µM | 3.4 µM | 4000 µg/mL (≈ 26600 µM) | > 4000 µg/mL | 128 µg/mL (≈ 852 µM) | 256 µg/mL (≈ 1700 µM) | 35.47% | significative difference | significative difference | around 32% | biofilm biomass percentage (crystal violet) versus untreated samples ([3]; sub-MIC 64 µg/mL, 72 h): significantly lower; percentage of alamarBlue reduction in respect to the corresponding controls ([3]; sub-MIC 64 µg/mL, biofilm, 72 h): ~85%; Ki (hCA VI): > 100 µM; MIC (L. reuteri DSM 17938; DSM17938, L. reuteri DSM 17938, text, read-out: MIC): 4000 µg/mL (≈ 26600 µM); Ki (hCA II): > 100 µM; Ki (hCA I): > 100 µM; Ki (PgiCAβ): 48.9 µM; MIC range [9]: 64 to 128 µg/mL
3 | Cc1ccc(C(C)C)cc1O [carvacrol] |  |  | No CFUs were observed | ability to inhibit the development of the H. pylori mature biofilm | no biofilm formation | 86.6 µM | 3.80 × 10^4 live cells/mL | 6.8 µM |  |  | 300 ± 6.5 µM | 13.3 µM |  |  |  |  | 32.53% |  |  |  | MBC ([2]; ATCCSD5214): > 16000 µg/mL; MIC ([2]; ATCCSD5214, 24 h): > 16000 µg/mL; biofilm biomass percentage (crystal violet) versus untreated samples [3]: significantly lower; percentage of alamarBlue reduction in respect to the corresponding controls [3]: about 80%; viability (flow cytometry) (H. pylori [4]): 35%; Ki ((UniProt Q9ZK30)): 8.4 µM; MBC ([5]; ATCC53103): > 16000 µg/mL; MIC ([5]; ATCC53103, 24 h): > 16000 µg/mL; MBC (L. reuteri DSM 17938; DSM17938): > 8000 µg/mL; MIC (L. reuteri DSM 17938; DSM17938): 8000 µg/mL (≈ 53300 µM); MIC (L. reuteri DSM 17938; DSM17938, 24 h): 8000 µg/mL (≈ 53300 µM); MBC (H. pylori ATCC43504; ATCC43504): 256 µg/mL (≈ 1700 µM); MIC (H. pylori ATCC43504; ATCC43504, 72 h): 128 µg/mL (≈ 852 µM); pOMV eDNA+ count versus untreated [7]: no differences were found; total pOMVs count versus untreated [7]: lower count; Ki (PgiCAβ): 28 µM; MIC range [9]: 16 to 64 µg/mL
4 | CC1(C)S[C@@H]2[C@H](NC(=O)[C@H](N)c3ccc(O)cc3)C(=O)N2[C@H]1C(=O)O [amoxicillin, reference compound] | 0.25 µg/mL (≈ 0.684 µM) | 0.25 µg/mL (≈ 0.684 µM) | 1.92 × 10^7 CFUs | did not inhibit H. pylori biofilm formation | well-structured biofilm with some dead cells |  | 3.18 × 10^6 live cells/mL |  | 1 µg/mL (≈ 2.74 µM) | 1 µg/mL (≈ 2.74 µM) |  |  | 16 µg/mL (≈ 43.8 µM) | 64 µg/mL (≈ 175 µM) | 0.032 µg/mL (≈ 0.0876 µM) | 0.032 µg/mL (≈ 0.0876 µM) | 16.52% | decrease | decrease | around 64% | % OMV eDNA+/Total OMVs ([7]; Biofilm T (treated with sub-MIC concentration)): 36.09%; bOMV eDNA+ versus untreated [7, 21]: no differences; total bOMVs versus untreated [7, 21]: no differences
5 | NC(N)=Nc1nc(CSCCC(N)=NS(N)(=O)=O)cs1 [famotidine] |  |  |  |  |  |  |  |  |  |  |  |  |  |  |  |  |  |  |  |  | inhibitory profile toward HpCAβ (HpCAβ [10]): nanomolar range
